Reference: ChEMBL document CHEMBL1201862, “PubChem BioAssay data set” (2004)
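All cell lines were grown in 96-well plates and treated with compound for 48 hours. GI50: concentration for 50% inhibition of growth.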 Calls of active or inactive are those of the source. Cut-off read from the data, not from the text of the source: active = GI50 up to about 1.1 µM and inactive = higher.

How the values were obtained:
Assay in all cases: growth of human tumour cells (NCI), 48 h
UACC-62 = tested on: UACC-62
M14 = tested on: M14
CCRF-CEM = tested on: CCRF-CEM
HCC 2998 = tested on: HCC 2998
NCI-H23 = tested on: NCI-H23
HCT-116 = tested on: HCT-116
SF-539 = tested on: SF-539
HL-60 = tested on: HL-60
SNB-19 = tested on: SNB-19
NCI-H460 = tested on: NCI-H460
IGROV-1 = tested on: IGROV-1
MOLT-4 = tested on: MOLT-4
SF-295 = tested on: SF-295
ACHN = tested on: ACHN
OVCAR-5 = tested on: OVCAR-5
RPMI-8226 = tested on: RPMI-8226
MDA-MB-435 = tested on: MDA-MB-435
MDA-MB-231 = tested on: MDA-MB-231

Measured: GI50

O=C1NC(=O)C2C(=O)NC(=O)C1C2c1c(Cl)cccc1Cl (stereo not given)
inactive: UACC-62 > 100 µM | M14 > 100 µM | CCRF-CEM > 46.7 µM | HCC 2998 > 60.5 µM | NCI-H23 > 100 µM | HCT-116 > 42.6 µM | SF-539 > 88.3 µM | HL-60 > 44.4 µM | SNB-19 > 100 µM | NCI-H460 > 42.2 µM | IGROV-1 > 100 µM | MOLT-4 > 100 µM | SF-295 > 100 µM | ACHN > 100 µM | OVCAR-5 > 100 µM | RPMI-8226 > 46.6 µM

CCC(=O)C(C)C1=Nc2nnc(CCCCCCCc3nnc4n3C(=O)C(C(C)C(=O)CC)=N4)n2C1=O (stereo not given)
inactive: UACC-62 > 100 µM | M14 > 100 µM | CCRF-CEM > 100 µM | HCC 2998 > 100 µM | NCI-H23 > 100 µM | HCT-116 > 100 µM | SF-539 > 100 µM | HL-60 > 100 µM | SNB-19 > 100 µM | NCI-H460 > 100 µM | IGROV-1 > 100 µM | MOLT-4 > 100 µM | SF-295 > 100 µM | ACHN > 100 µM | OVCAR-5 > 100 µM | RPMI-8226 > 100 µM

COC1(OC)CC2C(=O)N(Cc3ccccc3)C1C(S(=O)(=O)c1ccccc1)C2S(=O)(=O)c1ccccc1 (stereo not given)
inactive: UACC-62 13.4 µM | M14 14.8 µM | CCRF-CEM 2.91 µM | HCC 2998 17.1 µM | NCI-H23 13.6 µM | HCT-116 16.4 µM | SF-539 14 µM | HL-60 3.87 µM | SNB-19 > 100 µM | NCI-H460 27.7 µM | IGROV-1 17.2 µM | MOLT-4 11.5 µM | SF-295 45.7 µM | ACHN 10.6 µM | OVCAR-5 19.9 µM | RPMI-8226 15.9 µM

COc1ccc2c(c1)CC[C@@H]1[C@@H]2CC[C@]2(C)C(=O)/C(=C/c3ccc(OC)c(OC)c3)C[C@@H]12
inactive: UACC-62 > 100 µM | MDA-MB-435 > 100 µM | M14 > 100 µM | MDA-MB-231 > 100 µM | HCC 2998 > 100 µM | NCI-H23 97.9 µM | HCT-116 65.9 µM | SF-539 > 100 µM | HL-60 > 100 µM | SNB-19 > 100 µM | NCI-H460 > 100 µM | MOLT-4 > 100 µM | SF-295 > 100 µM | ACHN > 100 µM | OVCAR-5 > 100 µM | RPMI-8226 56.2 µM

NC1=C(O)c2cccc3cccc(c23)C1=O
inactive: UACC-62 > 100 µM | M14 > 100 µM | CCRF-CEM > 100 µM | HCC 2998 > 100 µM | NCI-H23 > 100 µM | HCT-116 > 100 µM | SF-539 > 100 µM | HL-60 > 100 µM | SNB-19 > 100 µM | IGROV-1 > 100 µM | MOLT-4 > 100 µM | SF-295 > 100 µM | ACHN > 100 µM | OVCAR-5 > 100 µM | RPMI-8226 > 100 µM

CC(=O)NNc1nc(C)c(C(=O)NNC(=O)C(=O)Nc2ccc(Cl)cc2Cl)s1
inactive: UACC-62 25.2 µM | M14 42.5 µM | CCRF-CEM 20.6 µM | HCC 2998 40.6 µM | NCI-H23 32.8 µM | HCT-116 47.2 µM | SF-539 30.1 µM | HL-60 37.4 µM | SNB-19 42.6 µM | NCI-H460 > 10 µM | IGROV-1 63.5 µM | MOLT-4 20.1 µM | SF-295 42.1 µM | ACHN 29.2 µM | OVCAR-5 55.1 µM | RPMI-8226 31.3 µM

O=C(Nc1ccccc1)Oc1ccccc1C1CCCCC1
inactive: UACC-62 25.5 µM | M14 23.6 µM | CCRF-CEM 19.5 µM | HCC 2998 25.9 µM | NCI-H23 14.4 µM | HCT-116 21.9 µM | SF-539 25.8 µM | HL-60 9.71 µM | SNB-19 63.1 µM | NCI-H460 20 µM | IGROV-1 24.8 µM | MOLT-4 14.9 µM | SF-295 17.3 µM | OVCAR-5 11.8 µM | RPMI-8226 19 µM

Cc1c(C(=O)C/C(=N/NC(=O)c2ccccc2O)C(=O)Nc2ccccc2C(C)C)[n+]([O-])c2ccccc2[n+]1[O-]
inactive: UACC-62 20 µM | M14 31 µM | CCRF-CEM 1.47 µM | HCC 2998 52.5 µM | NCI-H23 19.4 µM | HCT-116 27.7 µM | SF-539 40.6 µM | HL-60 3.01 µM | SNB-19 > 100 µM | NCI-H460 31.2 µM | IGROV-1 28.3 µM | MOLT-4 3.2 µM | SF-295 56.9 µM | ACHN 36.6 µM | OVCAR-5 > 100 µM
